Measurements reported in ChEMBL document CHEMBL1201862, “PubChem BioAssay data set” (2004).
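Assay format: 96-well plates, 48-hour exposure. Here, GI50 denotes the concentration required for 50% inhibition of growth.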 The source made the active and inactive calls. Cut-off read from the data, not from the text of the source: active = GI50 up to about 1.1 µM and inactive = higher.

Key:
Assay in all cases: NCI tumour cell line growth inhibition, 48 h
CAKI-1 = system: CAKI-1
DU-145 = system: DU-145
SF-268 = system: SF-268
MDA-MB-231 = system: MDA-MB-231
NCI-H460 = system: NCI-H460
K562 = system: K562
SW-620 = system: SW-620
UACC-257 = system: UACC-257
PC-3 = system: PC-3
HL-60 = system: HL-60
OVCAR-4 = system: OVCAR-4
A549 = system: A549
COLO 205 = system: COLO 205
SK-MEL-5 = system: SK-MEL-5
CCRF-CEM = system: CCRF-CEM
SNB-19 = system: SNB-19
MDA-N = system: MDA-N
HCC 2998 = system: HCC 2998
U-251 = system: U-251
TK-10 = system: TK-10

Measured: GI50

CC[C@@H]1CC[C@@H]2[C@H](CC[C@]3(C)[C@@H](OC(C)=O)CC[C@@H]23)[C@H]1COC(C)=O
inactive: CAKI-1 29 µM | DU-145 > 100 µM | SF-268 21.6 µM | MDA-MB-231 20 µM | NCI-H460 19.9 µM | K562 17.6 µM | SW-620 31.8 µM | UACC-257 29.5 µM | PC-3 30.1 µM | HL-60 20.7 µM | OVCAR-4 22.5 µM | A549 22.1 µM | COLO 205 19.1 µM | SK-MEL-5 18.3 µM | CCRF-CEM 20 µM | SNB-19 36.9 µM | MDA-N 24.9 µM | HCC 2998 13.4 µM | U-251 19.5 µM | TK-10 > 100 µM

O=C1OC(c2ccco2)=N/C1=C\c1ccc(Cl)c(Cl)c1
inactive: CAKI-1 91 µM | DU-145 98.6 µM | SF-268 59.6 µM | MDA-MB-231 > 100 µM | NCI-H460 88.7 µM | K562 > 100 µM | SW-620 > 100 µM | UACC-257 > 100 µM | PC-3 > 100 µM | HL-60 > 100 µM | OVCAR-4 85.1 µM | A549 62.1 µM | COLO 205 > 100 µM | SK-MEL-5 > 100 µM | CCRF-CEM > 100 µM | SNB-19 > 100 µM | MDA-N > 100 µM | HCC 2998 70.8 µM | U-251 57.7 µM | TK-10 66.7 µM

O=C(Nc1ccccc1)N1CC(CN2CCN(c3ccccc3)CC2)OC1=O (stereo not given)
inactive: CAKI-1 > 100 µM | DU-145 > 100 µM | SF-268 > 100 µM | MDA-MB-231 > 100 µM | NCI-H460 > 100 µM | K562 > 100 µM | SW-620 > 100 µM | UACC-257 > 100 µM | PC-3 > 100 µM | HL-60 > 100 µM | OVCAR-4 > 100 µM | A549 > 100 µM | COLO 205 > 100 µM | SK-MEL-5 > 100 µM | CCRF-CEM > 100 µM | SNB-19 > 100 µM | MDA-N > 100 µM | HCC 2998 > 100 µM | U-251 > 100 µM | TK-10 > 100 µM

O=C(O)CCS/C(=C\C(SCCC(=O)O)c1ccc(Cl)cc1)c1ccc(Cl)cc1 (stereo not given)
inactive: CAKI-1 37.2 µM | DU-145 57.9 µM | SF-268 50 µM | MDA-MB-231 71.4 µM | NCI-H460 50.1 µM | K562 35.1 µM | SW-620 28.1 µM | UACC-257 > 100 µM | PC-3 61 µM | HL-60 36.7 µM | OVCAR-4 41.2 µM | A549 57.1 µM | COLO 205 21.4 µM | SK-MEL-5 48.3 µM | CCRF-CEM 30.1 µM | SNB-19 40.7 µM | MDA-N 36.6 µM | HCC 2998 24.2 µM | U-251 33.5 µM | TK-10 80.7 µM

CSc1c(C#N)c(=O)n(N)c2[nH]nc(C)c12
inactive: CAKI-1 45.2 µM | DU-145 > 100 µM | SF-268 > 100 µM | MDA-MB-231 > 100 µM | NCI-H460 > 100 µM | K562 > 100 µM | SW-620 > 100 µM | UACC-257 > 100 µM | PC-3 > 100 µM | HL-60 > 100 µM | OVCAR-4 > 100 µM | A549 > 100 µM | COLO 205 > 100 µM | SK-MEL-5 > 100 µM | CCRF-CEM > 100 µM | SNB-19 > 100 µM | MDA-N > 100 µM | HCC 2998 > 100 µM | U-251 > 100 µM | TK-10 > 100 µM

O=C(O)CC(O)(C(=O)O)C(O)C(=O)O (stereo not given)
inactive: CAKI-1 > 1000 µM | DU-145 > 1000 µM | SF-268 > 1000 µM | MDA-MB-231 > 1000 µM | NCI-H460 > 1000 µM | K562 > 1000 µM | SW-620 > 1000 µM | UACC-257 > 1000 µM | PC-3 > 1000 µM | HL-60 > 1000 µM | OVCAR-4 > 1000 µM | A549 > 1000 µM | COLO 205 > 1000 µM | SK-MEL-5 247 µM | CCRF-CEM > 1000 µM | SNB-19 > 1000 µM | MDA-N 617 µM | HCC 2998 > 1000 µM | U-251 > 1000 µM | TK-10 > 1000 µM
